The record followed here is patent US9822130B2, “Triazolo-pyrazinyl derivatives useful as soluble guanylate cyclase activators” (Merck Sharp & Dohme Corp., priority 2014, dated 2017).

Each structure is given as a SMILES string.

This test concerns the target T1, sGC α1/β1 heterodimer stably expressed in CHO-K1 cell line (CHO-K1/sGC) (Homo sapiens, UniProt Q02108+Q02153).
T1 construct: expressed in transfected cells
T1 sequence (Q02108 1-690): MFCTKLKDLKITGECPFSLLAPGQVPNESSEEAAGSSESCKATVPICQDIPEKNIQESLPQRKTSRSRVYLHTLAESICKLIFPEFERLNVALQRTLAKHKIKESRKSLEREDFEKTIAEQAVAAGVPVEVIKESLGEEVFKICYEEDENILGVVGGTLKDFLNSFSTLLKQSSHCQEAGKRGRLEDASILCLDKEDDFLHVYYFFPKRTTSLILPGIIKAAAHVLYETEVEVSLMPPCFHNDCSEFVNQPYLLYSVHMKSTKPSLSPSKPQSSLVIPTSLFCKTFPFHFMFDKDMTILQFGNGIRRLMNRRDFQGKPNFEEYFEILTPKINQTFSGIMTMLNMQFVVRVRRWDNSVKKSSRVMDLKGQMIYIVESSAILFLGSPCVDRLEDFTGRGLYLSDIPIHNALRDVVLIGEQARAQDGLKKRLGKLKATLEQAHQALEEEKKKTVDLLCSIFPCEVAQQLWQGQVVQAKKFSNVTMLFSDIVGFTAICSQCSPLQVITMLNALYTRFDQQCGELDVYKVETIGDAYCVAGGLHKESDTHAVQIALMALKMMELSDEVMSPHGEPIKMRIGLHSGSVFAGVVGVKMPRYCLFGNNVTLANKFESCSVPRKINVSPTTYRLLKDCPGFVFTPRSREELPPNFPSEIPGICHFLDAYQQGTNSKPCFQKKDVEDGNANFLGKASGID
T1 sequence (Q02153 1-619): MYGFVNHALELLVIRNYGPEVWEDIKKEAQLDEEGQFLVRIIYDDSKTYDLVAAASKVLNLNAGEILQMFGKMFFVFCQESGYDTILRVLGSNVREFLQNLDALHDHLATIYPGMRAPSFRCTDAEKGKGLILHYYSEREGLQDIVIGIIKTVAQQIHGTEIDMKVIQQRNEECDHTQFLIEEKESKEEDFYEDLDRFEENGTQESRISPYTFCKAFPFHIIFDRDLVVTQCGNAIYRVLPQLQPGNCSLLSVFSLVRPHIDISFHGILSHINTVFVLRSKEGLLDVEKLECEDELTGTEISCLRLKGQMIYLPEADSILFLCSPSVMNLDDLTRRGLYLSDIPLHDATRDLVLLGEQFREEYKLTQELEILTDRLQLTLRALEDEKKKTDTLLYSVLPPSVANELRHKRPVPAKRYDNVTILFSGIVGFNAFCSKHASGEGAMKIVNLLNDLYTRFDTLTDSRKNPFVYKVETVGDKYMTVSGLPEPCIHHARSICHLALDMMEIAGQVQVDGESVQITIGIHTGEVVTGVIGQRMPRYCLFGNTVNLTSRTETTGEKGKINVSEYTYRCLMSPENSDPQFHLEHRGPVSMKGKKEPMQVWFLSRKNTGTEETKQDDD
In words: Cell-based sGC Functional Assay (CASA Assay), cGMP generation. To be noted: CHO-K1/sGC cells, 1 hr at 37° C., cGMP by HTRF, presence or absence of 1 μM DETA-NO not given; for EC50: 4P fit, read-out: IP (nM) (inflection point); for Emax: read-out: % Act. (percent activation relative to maximum cGMP production of Compound A = 100%). In short, it runs like this: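 Readout is HTRF cGMP in lysates, normalised to the maximal response of reference sGC activator Compound A (100%), with a 4P fit giving IP and fold induction. Cells were CHO-K1/sGC (human α1/β1) in EBSS buffer with IBMX, incubated 1 hr at 37° C with compound. Run with and without 1 μM DETA-NO; final DMSO 2.5%.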
(TR-FRET usually uses a lanthanide donor and a delayed reading to cut background.)

As for `CC1(c2ccc(C(F)(F)F)cc2)C(=O)Nc2nc(-c3cn4ncnc4c(CCC(F)(F)F)n3)nc(N)c21` (stereo not shown) [Example 77B, 4-amino-5-methyl-5-(4-(trifluoromethyl)phenyl)-2-(8-(3,3,3-trifluoropropyl)-[1,2,4]triazolo[1,5-a]pyrazin-6-yl)-5H-pyrrolo[2,3-d]pyrimidin-6(7H)-one], the EC50 is 333 nM.
Same read-out and setting: as for `CC1(c2ccc(Cl)cn2)C(=O)Nc2nc(-c3cn4ncnc4c(CCCC(F)(F)F)n3)nc(N)c21` (stereo not shown) [Example 26A, 4-amino-5-(5-chloropyridin-2-yl)-5-methyl-2-(8-(4,4,4-trifluorobutyl)-[1,2,4]triazolo[1,5-a]pyrazin-6-yl)-5H-pyrrolo[2,3-d]pyriniidin-6(7H)-one], the figure is 27.8 nM; as for `Nc1nc(-c2cn3ncnc3c(CCCC(F)(F)F)n2)nc2c1C(c1nnc(C3(F)CC3)o1)(C1CC1)C(=O)N2` (stereo not shown) [Example 108A, 4-amino-5-cyclopropyl-5-(5-(1-fluorocyclopropyl)-1,3,4-oxadiazol-2-yl)-2-(8-(4,4,4-trifluorobutyl)-[1,2,4]triazolo[1,5-a]pyrazin-6-yl)-5H-pyrrolo[2,3-d] pyrimidin-6(7H)-one], 14.7 nM.
On the same count and under the same terms, as for `Nc1nc(-c2cn3ncnc3c(CCCC(F)(F)F)n2)nc2c1C(c1ccccn1)(C1CC1)C(=O)N2` (stereo not shown) [Example 115A, 4-amino-5-cyclopropyl-5-(pyridin-2-yl)-2-(8-(4,4,4-trifluorobutyl)-[1,2,4]triazolo[1,5-a]pyrazin-6-yl)-5H-pyrrolo[2,3-d]pyrimidin-6(7H)-one], the figure is 233 nM; as for `CCCCc1nc(-c2nc(O)c3c(n2)NC(=O)C3(C)c2ccc(F)cn2)cn2ncnc12` (stereo not shown) [Example 155B, 2-(8-butyl-[1,2,4]triazolo[1,5-a]pyrazin-6-yl)-5-(5-fluoropyridin-2-yl)-4-hydroxy-5-methyl-5H-pyrrolo[2,3-d] pyrimidin-6(7H)-one], 163 nM; as for `Cc1ccc(C2(C)C(=O)Nc3nc(-c4cn5ncnc5c(CCCC(F)(F)F)n4)nc(O)c32)nc1` (stereo not shown) [Example 149B, 4-hydroxy-5-methyl-5-(5-methylpyridin-2-yl)-2-(8-(4,4,4-trifluorobutyl)-[1,2,4]triazolo[1,5-a]pyrazin-6-yl)-5H-pyrrolo[2,3-d]pyrimidin-6(7H)-one], 990 nM.
The same measure, in the same setting: under `CC1(c2ccccc2)C(=O)Nc2nc(-c3cn4ncnc4c(CCCC(F)(F)F)n3)nc(O)c21` (stereo not shown) [Example 143B, 4-hydroxy-5-methyl-5-phenyl-2-(8-(4,4,4-trifluorobutyl)-[1,2,4]triazolo[1,5-a]pyrazin-6-yl)-5H-pyrrolo[2,3-d]pyrimidin-6(7H)-one] stands 301 nM; under `CCCCc1nc(-c2nc(N)c3c(n2)NC(=O)C3(c2ccc(C)cn2)C2CC2)cn2ncnc12` (racemic) [Example 72B, 4-amino-2-(8-butyl-[1,2,4]triazolo[1,5-a]pyrazin-6-yl)-5-cyclopropyl-5-(5-methylpyridin-2-yl)-5H-pyrrolo[2,3-d]pyrimidin-6(7H)-one], 28.5 nM.
Regarding `Nc1nc(-c2cn3ncnc3c(CCCC(F)(F)F)n2)nc2c1C(c1ncc(Cl)cn1)(C1CC1)C(=O)N2` (stereo not shown) [Example 41A, 4-amino-5-(5-chloropyrimidin-2-yl)-5-cyclopropyl-2-(8-(4,4,4-trifluorobutyl)-[1,2,4]triazolo[1,5-a]pyrazin-6-yl)-5H-pyrrolo[2,3-d]pyrimidin-6(7H)-one], the EC50 is 27.8 nM.
The same measure, in the same setting: as for `CCCCc1nc(-c2nc(O)c3c(n2)NC(=O)C3(C)c2ccc(F)c(F)c2)cn2ncnc12` (stereo not shown) [Example 158B, 2-(8-butyl-[1,2,4]triazolo[1,5-a]pyrazin-6-yl)-5-(3,4-difluorophenyl)-4-hydroxy-5-methyl-5H-pyrrolo[2,3-d]pyrimidin-6(7H)-one], the figure is 102 nM; as for `CC1(c2ccc(C#N)cn2)C(=O)Nc2nc(-c3cn4ncnc4c(CCCC(F)(F)F)n3)nc(N)c21` (stereo not shown) [Example 48A, 6-(4-amino-5-methyl-6-oxo-2-(8-(4,4,4-trifluorobutyl)-[1,2,4]triazolo[1,5-a]pyrazin-6-yl)-6,7-dihydro-5H-pyrrolo[2,3-d]pyrimidin-5-yl)nicotinonitrile], 77.9 nM.
The same measure, in the same setting: as for `CC1(c2ccc(Cl)cc2)C(=O)Nc2nc(-c3cn4ncnc4c(CCCC(F)(F)F)n3)nc(N)c21` (stereo not shown) [Example 29A, 4-amino-5-(4-chlorophenyl)-5-methyl-2-(8-(4,4,4-trifluorobutyl)-[1,2,4]triazolo[1,5-a]pyrazin-6-yl)-5H-pyrrolo[2,3-d]pyrimidin-6(7H)-one], the figure is 11.4 nM; as for `CC1(c2ccc(Cl)cn2)C(=O)Nc2nc(-c3cn4ncnc4c(CCC(F)(F)C(F)(F)F)n3)nc(O)c21` (stereo not shown) [Example 120A, 5-(5-chloropyridin-2-yl)-4-hydroxy-5-methyl-2-(8-(3,3,4,4,4-pentafluorobutyl)-[1,2,4]triazolo[1,5-a]pyrazin-6-yl)-5H-pyrrolo[2,3-d]pyrimidin-6(7H)-one], 155 nM.
Turning to `Cc1cnc(C2(C3CC3)C(=O)Nc3nc(-c4cn5ncnc5c(CCC(F)(F)C(F)(F)F)n4)nc(N)c32)cn1` (racemic) [Example 21B, 4-amino-5-cyclopropyl-5-(5-methylpyrazin-2-yl)-2-(8-(3,3,4,4,4-pentafluorobutyl)-[1,2,4]triazolo[1,5-a]pyrazin-6-yl)-5H-pyrrolo[2,3-d]pyrimidin-6(7H)-one], the EC50 worked out at 43.1 nM.
Consider `CCCCc1nc(-c2nc(N)c3c(n2)NC(=O)C3(C)c2ccc(F)c(F)c2)cn2ncnc12` (stereo not shown) [Example 64B, 4-amino-2-(8-butyl-[1,2,4]triazolo[1,5-a]pyrazin-6-yl)-5-(3,4-difluorophenyl)-5-methyl-5H-pyrrolo[2,3-d]pyrimidin-6(7H)-one], for which the EC50 was 5.1 nM and the Emax was 90%.
Regarding `CCCCc1nc(-c2nc(N)c3c(n2)NC(=O)C3(C)c2ccc(C(F)(F)F)cn2)cn2ncnc12` (stereo not shown) [Example 67B, 4-amino-2-(8-butyl-[1,2,4]triazolo[1,5-a]pyrazin-6-yl)-5-methyl-5-(5-(trifluoromethyl)pyridin-2-yl)-5H-pyrrolo[2,3-d]pyrimidin-6(7H)-one], the EC50 is 25.5 nM.
`CC1(c2nnc(C(F)(F)F)o2)C(=O)Nc2nc(-c3cn4ncnc4c(CCCC(F)(F)F)n3)nc(N)c21` (stereo not shown) [Example 101A, 4-amino-5-methyl-2-(8-(4,4,4-trifluorobutyl)-[1,2,4]triazolo[1,5-a]pyrazin-6-yl)-5-(5-(trifluoromethyl)-1,3,4-oxadiazol-2-yl)-5H-pyrrolo[2,3-d]pyrimidin-6(7H)-one]: the EC50 amounted to 121 nM.
Turning to `CCCCc1nc(-c2nc(O)c3c(n2)NC(=O)C3(C)c2cccc(F)c2)cn2ncnc12` (stereo not shown) [Example 171A, 2-(8-Butyl-[1,2,4]triazolo[1,5-a]pyrazin-6-yl)-5-(3-fluorophenyl)-4-hydroxy-5-methyl-5,7-dihydro-6H-pyrrolo[2,3-d]pyrimidin-6-one], the EC50 was 137 nM and the Emax was 90%.
For `CC1(c2ccc(Cl)c(F)c2)C(=O)Nc2nc(-c3cn4ncnc4c(CCC(F)(F)C(F)(F)F)n3)nc(N)c21` (stereo not shown) [Example 5B, 4-amino-5-(4-chloro-3-fluorophenyl)-5-methyl-2-(8-(3,3,4,4,4-pentafluorobutyl)-[1,2,4]triazolo[1,5-a]pyrazin-6-yl)-5H-pyrrolo[2,3-d]pyrimidin-6(7H)-one], the EC50 turned out to be 20.9 nM.
The same measure, in the same setting: under `CC(F)(F)c1ccc(C2(C)C(=O)Nc3nc(-c4cn5ncnc5c(CCCC(F)(F)F)n4)nc(N)c32)cn1` (racemic) [Example 45B, 4-amino-5-(6-(1,1-difluoroethyl)pyridin-3-yl)-5-methyl-2-(8-(4,4,4-trifluorobutyl)-[1,2,4]triazolo[1,5-a]pyrazin-6-yl)-5H-pyrrolo[2,3-d]pyrimidin-6(7H)-one] stands 44.2 nM.
